# Test results as given in PubChem BioAssay AID2060900 (Molecular Pharmacology Branch, DTP, NCI, 2025).
# Tested on: 521955-158-R2-J5-PDC complex spheroids, viability
# Experiment: Anticancer human tumor 521955-158-R2-J5-PDC patient-derived pancreatic carcinoma cell line growth inhibition [RAS]
# Details: for IC50: curve of first compound; for viability, T/C: stronger effect = lower value
# Source text: RAS pathway inhibitors in Combinations in Complex Spheroids
# A high-throughput screen of multi-cell type tumor spheroids was designed to identify active combinations of RAS pathway inhibitors and targeted small molecules. Complex spheroids include a stromal component modeled by human endothelial cells (HUVEC) and fibroblasts modeled by human mesenchymal stem cells (MSCs). The concentration ranges selected for each drug and investigational agent were based upon clinically achievable concentrations if the clinical Cmax of the agent was known.
# Compounds. The drugs and investigational agents: abemaciclib (NSC768073), cobimetinib (NSC768068), divarasib (GDC6063, NSC841802), docetaxel (NSC628503), GDC-1971 (RLY-1971, NSC841576), gemcitabine (NSC613327), inavolisib (NSC800729), ipatasertib (NSC767898), KB-0742 (NSC834161), MRTX-1133 (NSC836407), osimertinib (NSC779217), RMC-4630 (NSC839698), RMC-6236 (NSC851965), RMC-6291 (NSC852671), Ro-3306 (NSC812927), sapanisertib (NSC764658), SN-38 (NSC673596), staurosporine (NSC755774), SY5609 (NSC837396), and tovorafenib (DAY101, NSC766906), were obtained from the National Cancer Institute (NCI) Developmental Therapeutics Program Chemical Repository. The FDA-approved anticancer drug set is available from the NCI Developmental Therapeutics Program. […] The stock solutions were prepared in dimethyl sulfoxide (DMSO, Sigma-Aldrich, St. Louis, MO, cat. D2650) at 800-fold the tested concentration and stored at -70 degrees C prior to their use. All drugs and investigational agents were tested over a range starting from a high concentration at or near the clinical Cmax and decreasing in half-log increments. If the clinical Cmax for an agent had not been determined, the highest concentration tested was 10 microM.
# Cell Culture. All cells were maintained in an incubator at 37 degrees C and 5% CO2 with 95% humidity. The PDC lines were cultured according to standard operating procedures established by the NCI PDMR. All PDCs were thawed and cultured in Matrigel-coated flasks prepared with a working solution of 1X Ham's F-12 nutrient mix, without supplementation (Invitrogen, Waltham, MA, cat. 11765054), 100 U/mL penicillin-streptomycin (Invitrogen, cat. 15140122), and 2.5% Matrigel (Corning Inc., Corning, NY, cat. 354248) for the first three passages. The 362531-283-R-J2-PDC and 782815-120-R-J1-PDC lines were cultured in 6C/Colon 1B media, which includes advanced DMEM/F-12 (Thermo Fisher Scientific, cat. 12634028), 10 mM HEPES (Thermo Fisher Scientific, cat. 15630080), 1X GlutaMAX supplement (Thermo Fisher Scientific, cat. 35050061), 0.1 mg/mL primocin (InvivoGen, San Diego, CA, cat. ant-pm-2), 10% defined fetal bovine serum, heat inactivated (HyClone Laboratories Inc., Logan, UT, cat. SH30070.03HI), 50% L-WRN conditioned media (ATCC, cat. CRL-3276), 1.25 mM N-Acetyl-L-cysteine (Sigma-Aldrich, cat. A9165), 10 mM nicotinamide (Sigma-Aldrich, cat. N0636), 1X B-27 supplement (Thermo Fisher Scientific, cat. 17504044), 1X N-2 supplement (Thermo Fisher Scientific, cat. 17502048), 50 ng/mL human EGF (Thermo Fisher Scientific, cat. PHG0311), and 10 microM Y-27632 dihydrochloride (Tocris Bioscience, cat. 1254). The K12877-001-R-J1-PDC line was cultured in 6I media, which includes all 6C/Colon 1B media plus 10 ng/mL human FGF-10 (PeproTech, cat. 100-26), 1 ng/mL human FGF-2 (PeproTech, cat. 100-18B), 1 µM prostaglandin E2 (Tocris Bioscience, cat. 2296), […] hydrocortisone (Sigma-Aldrich, cat. H4001), and […] bovine insulin (Sigma-Aldrich, cat. I6634). The K86415-001-R-J1-PDC line was cultured in 6D media, which includes all 6C/Colon 1B media components minus the L-WRN conditioned media. The 485176-168-R4-J1-PDC was cultured in PANC media, which includes all 6C/Colon 1B media plus 100 ng/mL human FGF-10 (PeproTech, cat. 100-26), 500 nM SB-431542 (Selleckchem, cat. S1067), and 10 nM gastrin (Tocris Bioscience, cat. 3006). […]
# [1] = second compound 0.000949 µM, first compound 0.0316 µM
# [2] = second compound 0.000949 µM, first compound 0.1 µM
# [3] = second compound 0.000949 µM, first compound 0.316 µM
# [4] = second compound 0.000949 µM, first compound 1 µM
# [5] = second compound 0.000949 µM, first compound 3.16 µM
# [6] = second compound 0.000949 µM, first compound 10 µM
# [7] = second compound 0.003 µM, first compound 0.0316 µM
# [8] = second compound 0.003 µM, first compound 0.1 µM
# [9] = second compound 0.003 µM, first compound 0.316 µM
# [10] = second compound 0.003 µM, first compound 1 µM
# [11] = second compound 0.003 µM, first compound 3.16 µM
# [12] = second compound 0.003 µM, first compound 10 µM
# [13] = second compound 0.00949 µM, first compound 0.0316 µM
# [14] = second compound 0.00949 µM, first compound 0.1 µM
# [15] = second compound 0.00949 µM, first compound 0.316 µM
# [16] = second compound 0.00949 µM, first compound 1 µM
# [17] = second compound 0.00949 µM, first compound 3.16 µM
# [18] = second compound 0.00949 µM, first compound 10 µM
# [19] = second compound 0.03 µM, first compound 0.0316 µM
# [20] = second compound 0.03 µM, first compound 0.1 µM
# [21] = second compound 0.03 µM, first compound 0.316 µM
# [22] = second compound 0.03 µM, first compound 1 µM
# [23] = second compound 0.03 µM, first compound 3.16 µM
# [24] = second compound 0.03 µM, first compound 10 µM
# [25] = second compound 0.0949 µM, first compound 0.0316 µM
# [26] = second compound 0.0949 µM, first compound 0.1 µM
# [27] = second compound 0.0949 µM, first compound 0.316 µM
# [28] = second compound 0.0949 µM, first compound 1 µM
# [29] = second compound 0.0949 µM, first compound 3.16 µM
# [30] = second compound 0.0949 µM, first compound 10 µM
# [31] = second compound 0.3 µM, first compound 0.0316 µM
# [32] = second compound 0.3 µM, first compound 0.1 µM
# [33] = second compound 0.3 µM, first compound 0.316 µM
# [34] = second compound 0.3 µM, first compound 1 µM
# [35] = second compound 0.3 µM, first compound 3.16 µM
# [36] = second compound 0.3 µM, first compound 10 µM
# 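Also: compound exposure lasted seven days before the viability read.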
# 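For viability, T/C in this document: spheroids also contain HUVEC endothelial cells and mesenchymal stem cells as stroma.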
smiles,measurement,setting,value
CC(Nc1ccc2c(c1)OCCn1cc(N3C(=O)OCC3C(F)F)nc1-2)C(N)=O (centres undefined) + CCn1c(-c2cccnc2C(C)OC)c2c3cc(ccc31)N1CCOC(CC(NC(=O)C(C(C)C)N(C)C(=O)C3(F)CCN(C(=O)C#CC(C)(C)N(C)C)CC3)C(=O)N3CCCC(N3)C(=O)OCC(C)(C)C2)C1,IC50,second compound 0.000949 µM,0.131 µM
same,IC50,second compound 0.003 µM,< 0.0316 µM
same,IC50,second compound 0.00949 µM,< 0.0316 µM
same,IC50,second compound 0.03 µM,< 0.0316 µM
same,IC50,second compound 0.0949 µM,< 0.0316 µM
same,IC50,second compound 0.3 µM,< 0.0316 µM
same,"viability, T/C",[1],63.1%
same,"viability, T/C",[2],46.7%
same,"viability, T/C",[3],34.7%
same,"viability, T/C",[4],27%
same,"viability, T/C",[5],83.6%
same,"viability, T/C",[6],17.9%
same,"viability, T/C",[7],59.7%
same,"viability, T/C",[8],36.6%
same,"viability, T/C",[9],32.3%
same,"viability, T/C",[10],23.8%
same,"viability, T/C",[11],93.3%
same,"viability, T/C",[12],16.3%
same,"viability, T/C",[13],41.8%
same,"viability, T/C",[14],46.3%
same,"viability, T/C",[15],31.9%
same,"viability, T/C",[16],26.3%
same,"viability, T/C",[17],108%
same,"viability, T/C",[18],15.6%
same,"viability, T/C",[19],49.8%
same,"viability, T/C",[20],44.2%
same,"viability, T/C",[21],33.9%
same,"viability, T/C",[22],30.8%
same,"viability, T/C",[23],70.1%
same,"viability, T/C",[24],13.9%
same,"viability, T/C",[25],39.1%
same,"viability, T/C",[26],33.6%
same,"viability, T/C",[27],28%
same,"viability, T/C",[28],22.4%
same,"viability, T/C",[29],74.8%
same,"viability, T/C",[30],13.6%
same,"viability, T/C",[31],39.1%
same,"viability, T/C",[32],32.6%
same,"viability, T/C",[33],27.3%
same,"viability, T/C",[34],24.9%
same,"viability, T/C",[35],53.5%
same,"viability, T/C",[36],12.8%
CCC(CC)c1cc(NC2CCC(N)C2)n2nccc2n1 (centres undefined) + CCn1c(-c2cccnc2C(C)OC)c2c3cc(ccc31)N1CCOC(CC(NC(=O)C(C(C)C)N(C)C(=O)C3(F)CCN(C(=O)C#CC(C)(C)N(C)C)CC3)C(=O)N3CCCC(N3)C(=O)OCC(C)(C)C2)C1,IC50,second compound 0.000949 µM,1.9 µM
same,IC50,second compound 0.003 µM,1.91 µM
same,IC50,second compound 0.00949 µM,1.96 µM
same,IC50,second compound 0.03 µM,1.93 µM
same,IC50,second compound 0.0949 µM,1.73 µM
same,IC50,second compound 0.3 µM,1.7 µM
same,"viability, T/C",[1],93.9%
same,"viability, T/C",[2],92.6%
same,"viability, T/C",[3],104%
same,"viability, T/C",[4],122%
same,"viability, T/C",[5],6.03%
same,"viability, T/C",[6],9.22%
same,"viability, T/C",[7],94.6%
same,"viability, T/C",[8],108%
same,"viability, T/C",[9],106%
same,"viability, T/C",[10],116%
same,"viability, T/C",[11],5.99%
same,"viability, T/C",[12],6.76%
same,"viability, T/C",[13],113%
same,"viability, T/C",[14],97.7%
same,"viability, T/C",[15],116%
same,"viability, T/C",[16],117%
same,"viability, T/C",[17],7.29%
same,"viability, T/C",[18],6.73%
same,"viability, T/C",[19],99.2%
same,"viability, T/C",[20],101%
same,"viability, T/C",[21],105%
same,"viability, T/C",[22],117%
same,"viability, T/C",[23],8.41%
same,"viability, T/C",[24],5.64%
same,"viability, T/C",[25],83.1%
same,"viability, T/C",[26],75.6%
same,"viability, T/C",[27],97.4%
same,"viability, T/C",[28],100%
same,"viability, T/C",[29],6.48%
same,"viability, T/C",[30],6.71%
same,"viability, T/C",[31],84.9%
same,"viability, T/C",[32],75.4%
same,"viability, T/C",[33],88.1%
same,"viability, T/C",[34],88.6%
same,"viability, T/C",[35],9.96%
same,"viability, T/C",[36],5.87%
